Test results published in KR20100108793A, “애기뿔소똥구리로부터 분리된 항진균 활성을 가지는 코프리신 펩타이드 및 그의 용도” (대한민국(농촌진흥청장), priority 2009, dated 2010).
In brackets after ≈: the same amount, converted by molar mass. Where no end group is shown, it is not given here.

Legend:
Assay type in all cases: cell-based
Aspergillus flavus = assay: Antifungal MIC by MTT assay; conditions: 28℃, 24 h, MTT readout at 570 nm
Aspergillus fumigatus = assay: Antifungal MIC by MTT assay; conditions: 28℃, 24 h, MTT readout at 570 nm
Aspergillus parasticus = assay: Antifungal MIC by MTT assay; conditions: 28℃, 24 h, MTT readout at 570 nm
[1] = test system: Candida albicans (TIMM 1768); assay: Antifungal MIC by MTT assay; conditions: strain TIMM 1768; 28℃, 24 h, MTT readout at 570 nm
[2] = test system: Candida albicans (ATCC 90028); assay: Antifungal MIC by MTT assay; conditions: strain ATCC 90028; 28℃, 24 h, MTT readout at 570 nm
Candida parapsilosis = assay: Antifungal MIC by MTT assay; conditions: 28℃, 24 h, MTT readout at 570 nm
Malassezia furfur = assay: Antifungal MIC by MTT assay; conditions: 28℃, 24 h, MTT readout at 570 nm
Trichosporon beigelii = assay: Antifungal MIC by MTT assay; conditions: 28℃, 24 h, MTT readout at 570 nm
Trichophyton rubrum = assay: Antifungal MIC by MTT assay; conditions: 28℃, 24 h, MTT readout at 570 nm
Candida albicans [3] = assay: Mechanism of antifungal activity (time-kill, CFU count; cidal or static); conditions: plated over time on YPD agar, 28℃, 24 h, CFU count (Fig. 2)
Human erythrocytes = assay: Cytotoxicity to human erythrocytes (hemolysis); conditions: for % human erythrocyte hemolysis: 37℃, 90 min, 0.1% Triton X-100 = 100 %; for Cytotoxicity to human erythrocytes (in words): summary of Table 3
Candida albicans [4] = assay: Activity on dimorphism (FBS-induced hyphae) of pathogenic fungus, microscopy; conditions: hyphae induced with 20% FBS; 37℃, 24 h; microscopy (Fig. 1)

With `CC[C@H](C)[C@H](NC(=O)CN)C(=O)NCC(=O)N[C@@H](C)C(=O)N[C@H](C(=O)N[C@@H](CC(C)C)C(=O)N[C@@H](CCCCN)C(=O)N[C@H](C(=O)N[C@@H](CC(C)C)C(=O)N[C@H](C(=O)N[C@H](C(=O)NCC(=O)N[C@@H](CC(C)C)C(=O)N1CCC[C@H]1C(=O)N[C@@H](C)C(=O)N[C@@H](CC(C)C)C(=O)N[C@H](C(=O)N[C@@H](CO)C(=O)N[C@@H](Cc1c[nH]c2ccccc12)C(=O)N[C@H](C(=O)N[C@@H](CCCCN)C(=O)N[C@@H](CCCNC(=N)N)C(=O)N[C@@H](CCCCN)C(=O)N[C@@H](CCCNC(=N)N)C(=O)N[C@@H](CCC(N)=O)C(=O)N[C@@H](CCC(N)=O)C(N)=O)[C@@H](C)CC)[C@@H](C)CC)[C@@H](C)O)[C@@H](C)O)C(C)C)C(C)C` [멜리틴, reference compound] the MIC (Aspergillus flavus) was 2.5 µM (≈ 7.12 µg/mL), the MIC (Aspergillus fumigatus) was 2.5 µM (≈ 7.12 µg/mL) and the MIC (Aspergillus parasticus) was 5 µM (≈ 14.2 µg/mL). It also gave an MIC [1] of 2.5 µM (≈ 7.12 µg/mL), an MIC [2] of 5 µM (≈ 14.2 µg/mL) and an MIC (Candida parapsilosis) of 5 µM (≈ 14.2 µg/mL). The MIC (Malassezia furfur) was 1.25 µM (≈ 3.56 µg/mL), the MIC (Trichosporon beigelii) was 2.5 µM (≈ 7.12 µg/mL) and the MIC (Trichophyton rubrum) was 5 µM (≈ 14.2 µg/mL). The “Mode of antifungal action, cidal or static (in words)” value (Candida albicans [3]) was “효과적으로 사멸(cidal)”, the “% human erythrocyte hemolysis” value (Human erythrocytes; peptide 3.13 μM) was 98% and the “% human erythrocyte hemolysis” value (Human erythrocytes; peptide 6.25 μM) was 98%. For the same compound, the “% human erythrocyte hemolysis” value (Human erythrocytes; peptide 12.5 μM) was 100%, the “% human erythrocyte hemolysis” value (Human erythrocytes; peptide 25 μM) was 100% and the “% human erythrocyte hemolysis” value (Human erythrocytes; peptide 50 μM) was 100%. For the same compound, the “% human erythrocyte hemolysis” value (Human erythrocytes; peptide 100 μM) was 100% and the “Cytotoxicity to human erythrocytes (in words)” value (Human erythrocytes) was “낮은 농도에서도 세포 독성이 매우 높게 나타냄”.
With “VTCDVLSFEAKGIAVNHSACALHCIALRKKGGSCQNGVCVCRN (cysteines drawn unpaired) [코프리신]” the MIC (Aspergillus flavus) was 10 µM, the MIC (Aspergillus fumigatus) was 5 µM and the MIC (Aspergillus parasticus) was 10 µM. For the same compound, the MIC [1] was 5 to 10 µM, the MIC [2] was 10 µM and the MIC (Candida parapsilosis) was 10 µM. For the same compound, the MIC (Malassezia furfur) was 5 µM, the MIC (Trichosporon beigelii) was 10 µM and the MIC (Trichophyton rubrum) was 20 µM. For the same compound, the “Effect on hyphae of Candida albicans (in words)” value (Candida albicans [4]) was “hyphae를 효과적으로 aggregation시킴”, the “Mode of antifungal action, cidal or static (in words)” value (Candida albicans [3]) was “효과적으로 사멸(cidal)” and the “% human erythrocyte hemolysis” value (Human erythrocytes; peptide 3.13 μM) was 0%. The “% human erythrocyte hemolysis” value (Human erythrocytes; peptide 6.25 μM) was 0%, the “% human erythrocyte hemolysis” value (Human erythrocytes; peptide 12.5 μM) was 0% and the “% human erythrocyte hemolysis” value (Human erythrocytes; peptide 25 μM) was 0%. For the same compound, the “% human erythrocyte hemolysis” value (Human erythrocytes; peptide 50 μM) was 0%, the “% human erythrocyte hemolysis” value (Human erythrocytes; peptide 100 μM) was 0% and the “Cytotoxicity to human erythrocytes (in words)” value (Human erythrocytes) was “고농도에서도 전혀 세포 독성을 나타내지 않음”.
